Measured values from patent US9416151B2, “Use of glycyrrhetinic acid, glycyrrhizic acid and related compounds for prevention and/or treatment of pulmonary fibrosis” (priority 2010, dated 2016).
Entries after “also recorded” stand apart in the source; their conditions may differ.

Tests used:
[1] = test system: inflammatory mediators (IMs), including IL1a, TNFa, PF4 and VCAM-1; test: Inflammatory mediators in lung homogenates by ELISA, acute phase of IR-induced pneumonitis; format: in vivo, C57BL/6 fibrosis-prone mice; conditions: 2.5 days after thoracic IR 15 Gy; treatment from 6 h after IR; vs vehicle, p<0.05
Experimental: (§1) Briefly, C57BL/6 fibrosis-prone mice received a single-dose of thoracic IR at 15 Gy with a dose rate of 1.9 Gy/min. Six hours after IR exposure, the mice were divided into the following treatment groups: 1) normal (received 0 Gy; no treatment); 2) vehicle-treated; 3) GA-treated (30-40 mg/kg/q.o.d) (i.e. every other day) (the GA dosage used herein was derived from the effective dosage for humans (3-4 mg/kg), which is typically 6-10 times lower than that of mice); 4) dexamethasone-treated (Positive Control 1) (Dex, 3 mg/kg, i.m. or p.o. qod); 5) amifostine-treated (Positive Control 2) (Ami, 200 mg/kg/ i.v, 0.5 hr prior to irradiation); and 6) celebrex-treated (Positive Control 3) (30 mg/kg, po, qod).
The mice were sacrificed 2.5 days after IR exposure, and fresh lung tissue homogenates were prepared using lysis buffer mixed with protenase inhibitor cocktails. After protein concentration was adjusted to 1 mg/ml, the fresh lung homogenates were added to ELISA plates at a concentration of 100 μl/well. The levels of inflammatory mediators were measured by ELISA.

[2] = test system: mice with IR-induced pneumonitis; test: Lung morphology, plasma exudation and inflammatory cell infiltration, acute phase of IR-induced pneumonitis; format: in vivo, C57BL/6 fibrosis-prone mice; conditions: 2.5 days after thoracic IR 15 Gy
Experimental: as §1
Briefly, C57BL/6 fibrosis-prone mice received a single-dose of thoracic IR at 15 Gy with a dose rate of 1.9 Gy/min and were treated as described in Example 2. The mice were sacrificed 2.5 days after IR exposure, and lung tissues were harvested and analyzed for morphological changes.

[3] = test system: ACTH (adrenocorticotropic hormone); growth hormone (GH); conditions: in vivo
Experimental: The chemical structure of GA is similar to that of cortisol. Thus, this Example investigates whether the long-term use of GA would affect the production of cortisol and cause side effects. The plasma levels of ACTH (adrenocorticotropic hormone), a […], were measured using ELISA at Weeks 6, 7, and 10 after GA-treatments (40 mg/kg, god, p.o).
In addition, plasma levels of growth hormone (GH) were measured using ELISA at Weeks 6, 7, and 10 after GA treatments.

[4] = test system: pulmonary fibrosis; test: Inventors' observation on dexamethasone in pulmonary fibrosis; format: in vivo; conditions: compared to non-treated controls
[5] = test system: IR-induced pneumonitis; test: GLA tablets in a lung cancer patient receiving 2nd IR treatment; format: in vivo; conditions: one patient
Experimental: In collaboration with radiation oncologists at the First Affiliated Hospital of Fujian Medical School in China, GLA tablets (produced by Minophagen Co. in Japan and available in pharmacies in China) were administered to a patient who received their 2nd IR treatment for lung cancer. […] To control the progression of pneumonitis, they received dexamethasone treatment. Due to tumor re-growth 9 months after their 1st IR treatment, they received a 2nd IR treatment with warnings that IR may worsen pneumonitis.
In order to mitigate IR-induced lung injury, GLA was administered at a does of 150 mg per day (equivalent to GA about 85 mg per day) starting from the date of 2nd treatment for 3 months. The result was unexpectedly surprising.

[6] = Toxicity of long-term use: activity, fur morphology, body weight; format: in vivo
[7] = test system: mice with IR-induced pulmonary fibrosis; test: Lung density by cone beam CT scan (CBCT); format: in vivo; conditions: for lung density (abnormal increase): 7.5 months after IR 15 Gy, P<0.05
Experimental: To assess effects of GA on lung density, cone beam CT scan (CBCT) of mouse lungs was performed. CBCT provides a complete 3D 650×650×428 scan (i.e. 428 slices) of the lungs with isotropic resolution at 270 μm (central slice shown in FIG. 11) in 30 seconds. The scanner achieves a CT density sensitivity of ˜[…], and thus, changes in lung density can be discerned. The CBCT imaging data were further analyzed using MATLAB software. The lungs were automatically segmented (FIG. 12A) and a 3D image was generated for each mouse lung (FIG. 12B). To reduce the effect of cardiac motion on the mean value of lung density, boundaries of the lungs were not used for analysis. A histogram of voxel intensity (pulmonary tissue density) of each mouse was created (FIG. 13).

[8] = test system: mice with IR-induced pulmonary fibrosis; test: Lung histology (H&E, trichrome), hydroxyproline and TGFβ in IR-induced fibrosis; format: in vivo
Experimental: Briefly, mice treated with GA (40 mg/kg/q.o.d.) for 3 months were sacrificed 7 months after IR exposure at 15 Gy, and lung tissue specimens were stained using hematoxylin and eosin (H&E) stain.
To assess whether GA reduces abnormal collagen deposition in lungs, lung tissue specimen was stained with collagen-binding trichrome blue dye.
The reduction of collagen deposition was further analyzed by measuring the levels of hydroxyproline, a key component of collagen.

[9] = test system: mice with IR-induced pulmonary fibrosis; test: Respiratory rate in IR-induced pulmonary fibrosis (ventilator with pressure plethysmograph); format: in vivo
Experimental: Mice exposed to thoracic IR develops pulmonary fibrosis 6 months after IR exposure at 18 Gy, 8 months after IR exposure at 15 Gy, and 10 months after IR exposure at 12.5 Gy. To access the treatment effects of GA on lung fibrosis and lung function, the respiratory rate, lung density, and lung compliance of the mice were determined.
To assess improvement on respiratory function, mice exposed to thoracic IR at 15 Gy were treated with GA (30-40 mg/kg) q.o.d. or twice/week for 3 months. Mouse respiratory rate was measured using a Harvard rodent ventilator connected to a pressure plethysmograph.

[10] = test system: mice with IR-induced pneumonitis; test: Sub-acute phase of IR-induced pneumonitis: lung tissue and BALF assays; format: in vivo, C57BL/6 fibrosis-prone mice
Experimental: as §1
Briefly, C57BL/6 fibrosis-prone mice received a thoracic IR and were treated as described in Example 2. The mice were sacrificed 17 days after IR exposure, and lung tissues were harvested. Bronchoalveolar lavage fluid (BALF) assays were performed.

[11] = test system: mice with IR-induced pulmonary fibrosis; test: Lung compliance (plethysmograph pressure-volume measurements); format: in vivo; conditions: 6.5 months after IR 15 Gy; P<0.05
Experimental: To assess the effects of GA on lung compliance, mice were anesthetized and their trachea were surgically exposed and incised. An 18-gauge, 1 cm stainless steel tube was inserted into the trachea and secured with surgical sutures. The respiratory rate and tidal volume of the mice were measured by a Harvard rodent ventilator. The average respiratory rate was 150 breaths per minute and the tidal volume was adjusted according to the weight (0.01 ml per gram body weight). The mice were then placed in a plethysmograph for pressure-volume measurements.

[12] = test system: IL1a, TNFa, lymphotactin and p-selectin; test: Inflammatory mediators, sub-acute phase, GA administered 24 hours after IR exposure; format: in vivo, mice; conditions: GA given 24 hours after thoracic IR at 5, 10 and 15 Gy
Experimental: The administration of GA 24 hours after IR exposure can effectively block the surge in inflammatory responses.

[13] = test system: SP-D and IL1a; test: Plasma levels of SP-D and IL1a, acute phase of IR-induced pneumonitis; format: in vivo, C57BL/6 fibrosis-prone mice; conditions: 2.5 days after thoracic IR; P<0.05
Experimental: as §1
IR damages lung epithelium and endothelium cells, and causes dysfunction of tight junction, increased cellular permeability, and the loss of integrity of the alveolar-capillary barrier. As a result, SP-D and IL1a abnormally enter into the blood from inflamed pulmonary tissue, leading to elevated plasma levels of SP-D and IL1a.
In this Example, C57BL/6 fibrosis-prone mice received a single-dose of thoracic IR at 15 Gy with a dose rate of 1.9 Gy/min and were treated as described in Example 2. The mice were sacrificed 2.5 days after IR exposure, and plasma levels of SP-D and IL1a were measured.

NCCCNCCSP(=O)(O)O [amifostine, reference compound]
levels of inflammatory mediators (IL1a, TNFa, PF4, VCAM-1) in lung homogenates [1]: extent of inhibition by GA was comparable
plasma exudation and inflammatory cell infiltration into the interstitial space [2]: produced similar treatment effects

C[C@@H]1C[C@H]2[C@@H]3CCC4=CC(=O)C=C[C@]4(C)[C@@]3(F)[C@@H](O)C[C@]2(C)[C@@]1(O)C(=O)CO [dexamethasone, reference compound]
plasma growth hormone (GH) level [3]: increased
reduction in plasma ACTH levels [3]: 10-50 fold
course of pulmonary fibrosis and survival [4]: may result in worsening of pulmonary fibrosis, leading to lung failure or even earlier death

glycyrrhizic acid [GLA]
symptoms of pneumonitis or fibrosis ([5]; 150 mg per day for 3 months from 2nd IR treatment): did not exhibit any symptom of pneumonitis or fibrosis; also recorded: mitigates pneumonitis
lung density (CT) ([5]; CT of 1st vs 2nd IR treatment): significantly reduced

Cc1ccc(-c2cc(C(F)(F)F)nn2-c2ccc(S(N)(=O)=O)cc2)cc1 [celebrex, reference compound]
levels of inflammatory mediators (IL1a, TNFa, PF4, VCAM-1) in lung homogenates [1]: extent of inhibition by GA was comparable
body weight ([6]; 7.5 months post IR 15 Gy, vehicle-treated mice lost 6-7 g): less severe loss of BW
plasma exudation and inflammatory cell infiltration into the interstitial space [2]: produced similar treatment effects
lung density (abnormal increase) [7]: reduction in lung density by GA is more potent that of celebrex

glycyrrhetinic acid [GA]
lung morphology (H&E stain) ([8]; GA 40 mg/kg/q.o.d. for 3 months, 7 months after IR 15 Gy): near-normal morphology; also recorded: mitigates IR-induced pulmonary fibrosis
collagen deposition (trichrome blue dye) ([8]; IR-exposed mice): reduces collagen deposition; also recorded: mitigates IR-induced lung fibrosis
level of TGFβ ([8]; IR-exposed mice): reduced
hydroxyproline levels in the lungs ([8]; vs IR + vehicle control, P<0.05): reduced; also recorded: reduces collagen deposition
levels of inflammatory mediators (IL1a, TNFa, PF4, VCAM-1) in lung homogenates [1]: effectively reduced levels of IMs; also recorded: inhibition effects
plasma growth hormone (GH) level [3]: increased
plasma ACTH levels ([3]; 40 mg/kg): rapidly returned to normal
respiratory rate ([9]; 5 months after IR 18 Gy): reduction of respiratory rate
respiratory rate ([9]; 7 months after IR 15 Gy, GA 30-40 mg/kg q.o.d. or twice/week for 3 months, P<0.05): effectively reduced; also recorded: reduction of respiratory rate
infiltration of neutrophils into the interstitial fluid (lung tissue) ([10]; 17 days after IR 15 Gy): suppression of infiltration of neutrophils; also recorded: mitigates the sub-acute phase of IR-induced pneumonitis
myeloperoxidase (MPO) activity in BALF ([10]; 17 days after IR 15 Gy, P<0.05): reduces
neutrophils infiltrated into bronchoalveolar lavage fluid ([10]; 17 days after IR 15 Gy, P<0.05): reduced; also recorded: reduces the number of neutrophils
levels of lymphotactin and p-selectin ([10]; 17 days after IR exposure, P<0.05): reduced; also recorded: reduces the levels of inflammatory mediators
death during treatment ([6]; long-term GA treatment): No mouse died
side effects (activity, fur morphology, body weight) ([6]; long-term use): little side effects
lung compliance [11]: potently, and mostly effectively, enhanced
plasma exudation and inflammatory cell infiltration into the interstitial space [2]: potently suppressed; also recorded: reduces inflammatory cell infiltration and plasma exudation
levels of IL1a, TNFa, lymphotactin and p-selectin [12]: potently reduced; also recorded: inhibits inflammatory responses
plasma levels of IL1a [13]: effectively reduced; also recorded: reduces plasma levels of SP-D and ILa
plasma levels of SP-D [13]: effectively reduced; also recorded: reduces plasma levels of SP-D
Mean Density (lung density) ([7]; 1 year post IR exposure at 18 Gy, normal control −454, IR without treatment −364): −458 HU
lung density (abnormal increase) [7]: significantly reduced; also recorded: reduces lung density
